Results from patent publication US9399649B2, “Compounds for treating spinal muscular atrophy” (PTC Therapeutics Inc., priority 2012, dated 2016).

Tests used:
Smn protein = Smn protein assay in cultured cells (SMN HTRF); assay type: cell-based, human; conditions: SMA patient fibroblast cells (GM03813), 48 hours; for EC1.5x for Smn protein expression: 7-point concentration curve, concentration producing 1.5 times Smn protein vs DMSO vehicle; for maximum fold (Fold) increase of Smn protein: 7-point concentration data, relative to vehicle control
Procedure: The SMN HTRF (homogeneous time resolved fluorescence) assay is used to quantify the level of Smn protein in SMA patient fibroblast cells treated with test compounds.
Cells are thawed and cultured in DMEM-10% FBS for 72 hours. Cells are trypsinized, counted and re-suspended to a concentration of 25,000 cells/mL in DMEM-10% FBS. The cell suspensions are plated at 5,000 cells per well in a 96 well microtiter plate and incubated for 3 to 5 hours. […] Test compounds are serially diluted 3.16-fold in 100% DMSO to generate a 7-point concentration curve. 1 μL of test compound solution is transferred to cell-containing wells and cells are incubated for 48 hours in a cell culture incubator (37° C., 5% CO2, 100% relative humidity). Triplicate samples are set up for each test compound concentration. After 48 hours, the supernatant is removed from the wells and 25 μL of the RIPA lysis buffer, containing protease inhibitors, is added to the wells and incubated with shaking at room temperature for 1 hour. 25 μL of the diluent is added and then 35 μL of the resulting lysate is transferred to a 384-well plate, where each well contains 5 μL of the antibody solution (1:100 dilution of anti-SMN d2 and anti-SMN kryptate in SMN reconstitution buffer). The plate is centrifuged for 1 minute to bring the solution to the bottom of the wells, then incubated overnight at room temperature. Fluorescence for each well of the plate at 665 nm and 620 nm is measured on an EnVision multilabel plate reader (Perkin-Elmer).
The normalized fluorescence signal is calculated for each sample, Blank and vehicle control well by dividing the signal at 665 nm by the signal at 620 nm. Normalizing the signal accounts for possible fluorescence quenching due to the matrix effect of the lysate. The ΔF value (a measurement of Smn protein abundance as a percent value) for each sample well is calculated by subtracting the normalized average fluorescence for the Blank control wells from the normalized fluorescence for each sample well, then dividing this difference by the normalized average fluorescence for the Blank control wells and multiplying the resulting value by 100. The ΔF value for each sample well represents the Smn protein abundance from test compound-treated samples. The ΔF value for each sample well is divided by the ΔF value for the vehicle control wells to calculate the fold increase in Smn protein abundance relative to the vehicle control.

[1] = test system: full length SMN2 minigene mRNA containing SMN2 exon 7; test: SMN2 minigene mRNA splicing RT-qPCR assay in cultured cells; assay type: cell-based, human; conditions: Homo sapiens, HEK293-H; HEK293H cells stably transfected with SMN2-A minigene, 24 hours, 7-point concentration curve; concentration giving 1.5-fold full length SMN2 mRNA vs vehicle; read-out: EC1.5x for production of full length SMN2 mRNA
Procedure: The reverse transcription-quantitative PCR-based (RT-qPCR) assay is used to quantify the level of the full length SMN2 minigene mRNA containing SMN2 exon 7 in a HEK293H cell line stably transfected with said minigene and treated with a test compound.
HEK293H cells stably transfected with the SMN2-A minigene construct described above (10,000 cells/well) are seeded in 200 ut, of cell culture medium (DMEM plus 10% FBS, with 200 μg/mL hygromycin) in 96-well flat-bottom plates and the plate is immediately swirled to ensure proper dispersal of cells, forming an even monolayer of cells. Cells are allowed to attach for at least 4-6 hours. Test compounds are serially diluted 3.16-fold in 100% DMSO to generate a 7-point concentration curve. A solution of test compound (1 μL, 200× in DMSO) is added to each cell-containing well and the plate is incubated for 24 hours in a cell culture incubator (37° C., 5% CO2, 100% relative humidity). 2 replicates are prepared for each test compound concentration. The cells are then lysed in Cells-To-Ct lysis buffer and the lysate is stored at −80° C.
Primer SMN Forward A (SEQ ID NO. 1) hybridizes to a nucleotide sequence in exon 7 (nucleotide 22 to nucleotide 40), primer SMN Reverse A (SEQ ID NO. 2) hybridizes to a nucleotide sequence in the coding sequence of Firefly luciferase, SMN Probe A (SEQ ID NO. 3) hybridizes to a nucleotide sequence in exon 7 (nucleotide 50 to nucleotide 54) and exon 8 (nucleotide 1 to nucleotide 21). The combination of these three oligonucleotides detects only SMN1 or SMN2 minigenes (RT-qPCR) and will not detect endogenous SMN1 or SMN2 genes.
The SMN forward and reverse primers are used at final concentrations of 0.4 μM. The SMN probe is used at a final concentration of 0.15 μM. The GAPDH primers are used at final concentrations of 0.2 μM and the probe at 0.15 μM.
The SMN2-minigene GAPDH mix (15 μL total volume) is prepared by combining 7.5 μL of 2×RT-PCR buffer, 0.4 μL of 25×RT-PCR enzyme mix, 0.75 μL of 20×GAPDH primer-probe mix, 4.0075 μL of water, 2 μL of 10-fold diluted cell lysate, 0.06 μL of 100 μM SMN forward primer, 0.06 μL of 100 μM SMN reverse primer, and 0.225 μL of 100 μM SMN probe.
PCR is carried out at the following temperatures for the indicated time: Step 1: 48° C. (15 min); Step 2: 95° C. (10 min); Step 3: 95° C. (15 sec); Step 4: 60° C. (1 min); then repeat Steps 3 and 4 for a total of 40 cycles.
Each reaction mixture contains both SMN2-A minigene and GAPDH primersprobe sets (multiplex design), allowing simultaneous measurement of the levels of two transcripts.
Two SMN spliced products are generated from the SMN2 minigene. The first spliced product containing exon 7, corresponding to full length SMN2 mRNA, is referred to herein using the term “SMN2 minigene FL.” The second spliced product lacking exon 7 is referred to herein using the term “SMN2 minigene Δ7.”
The increase of SMN2 minigene FL mRNA relative to that in cells treated with vehicle control is determined from real-time PCR data using a modified ΔΔCt method (as described in Livak and Schmittgen, Methods, 2001, 25:402-8). The amplification efficiency (E) is calculated from the slope of the amplification curve for SMN2 minigene FL and GAPDH individually. The abundances of SMN2 minigene FL and GAPDH are then calculated as (1+E)^−Ct, where Ct is the threshold value for each amplicon. The abundance of SMN2 minigene FL is normalized to GAPDH abundance. The normalized SMN2 minigene FL abundance from test compound-treated samples is then divided by normalized SMN2 minigene FL abundance from vehicle-treated cells to determine the level of SMN2 FL mRNA relative to vehicle control.

SMILES | EC1.5x for Smn protein expression (Smn protein) | maximum fold (Fold) increase of Smn protein (Smn protein) | melting point | EC (1.5-fold) [1]
Cc1cn2cc(-c3cc4ccc(C5CCNCC5)cc4c(=O)o3)nc2c(C)n1 [Cpd 96, 3-(6,8-dimethylimidazo[1,2-a]pyrazin-2-yl)-7-(piperidin-4-yl)-1H-isochromen-1-one] | **** (an EC1.5×≦0.3 nM is indicated by four stars (****)) | ***** (a fold increase >1.65 is indicated by five stars (*****)) | 218 to 220 °C | ≤ 0.1 µM
CN1CCN(c2ccc3cc(-c4cn5cccc(Cl)c5n4)oc(=O)c3c2)CC1 [Cpd 61, 3-(8-chloroimidazo[1,2-a]pyridin-2-yl)-7-(4-methylpiperazin-1-yl)-1H-isochromen-1-one] | – | * (A maximum fold increase of ≦1.2 is indicated by one star (*)) | 240 °C (dec.) | 1 to 3 µM
COc1cccc(-c2cc3ccc(N4C[C@@H](C)N[C@@H](C)C4)cc3c(=O)o2)c1 [Cpd 20, 7-[(3R,5S)-3,5-dimethylpiperazin-1-yl]-3-(3-methoxyphenyl)-1H-isochromen-1-one] | – | * (A maximum fold increase of ≦1.2 is indicated by one star (*)) | 195 to 197 °C | 3 to 30 µM
Cc1cn2cc(-c3cc4ccc(N5CCN(CCO)CC5)cc4c(=O)o3)cc2c(C)n1 [Cpd 79, 3-(1,3-dimethylpyrrolo[1,2-a]pyrazin-7-yl)-7-[4-(2-hydroxyethyl)piperazin-1-yl]-1H-isochromen-1-one] | **** (an EC1.5×≦0.3 nM is indicated by four stars (****)) | **** (a fold increase between >1.5 and ≦1.65 is indicated by four stars (****)) | 240 to 242 °C | ≤ 0.1 µM
Cc1cn2cc(-c3cc4ccc(N5CCN(CCO)[C@H](C)C5)cc4c(=O)o3)nc2c(C)n1 [Cpd 142, 3-(6,8-dimethylimidazo[1,2-a]pyrazin-2-yl)-7-[(3R)-4-(2-hydroxyethyl)-3-methylpiperazin-1-yl]-1H-isochromen-1-one] | **** (an EC1.5×≦0.3 nM is indicated by four stars (****)) | ***** (a fold increase >1.65 is indicated by five stars (*****)) | 256 to 261 °C | ≤ 0.1 µM
CCc1nc(C)cn2cc(-c3cc4ccc(N5CCN(C)[C@@H](C)C5)cc4c(=O)o3)nc12 [Cpd 155, 7-[(3S)-3,4-dimethylpiperazin-1-yl]-3-(8-ethyl-6-methylimidazo[1,2-a]pyrazin-2-yl)-1H-isochromen-1-one] | **** (an EC1.5×≦0.3 nM is indicated by four stars (****)) | ***** (a fold increase >1.65 is indicated by five stars (*****)) | 233 to 238 °C | ≤ 0.1 µM
Cc1cn2cc(-c3cc4ccc(C5=CCN(C6CCC6)CC5)cc4c(=O)o3)nc2c(C)n1 [Cpd 94, 7-(1-cyclobutyl-1,2,3,6-tetrahydropyridin-4-yl)-3-(6,8-dimethylimidazo[1,2-a]pyrazin-2-yl)-1H-isochromen-1-one] | *** (an EC1.5× between >0.3 nM and ≦1 nM is indicated by three stars (***)) | ***** (a fold increase >1.65 is indicated by five stars (*****)) | 252 to 254 °C | ≤ 0.1 µM
Cc1cn2cc(-c3cc4ccc(N5CCN(C6CCC6)[C@H](C)C5)cc4c(=O)o3)nc2c(C)n1 [Cpd 143, 7-[(3R)-4-cyclobutyl-3-methylpiperazin-1-yl]-3-(6,8-dimethylimidazo[1,2-a]pyrazin-2-yl)-1H-isochromen-1-one] | **** (an EC1.5×≦0.3 nM is indicated by four stars (****)) | ***** (a fold increase >1.65 is indicated by five stars (*****)) | 281 to 285 °C | ≤ 0.1 µM
CN1CCCN(c2ccc3cc(-c4nc5ccccc5s4)oc(=O)c3c2)CC1 [Cpd 11, 3-(1,3-benzothiazol-2-yl)-7-(4-methyl-1,4-diazepan-1-yl)-1H-isochromen-1-one] | – | * (A maximum fold increase of ≦1.2 is indicated by one star (*)) | 270 to 272 °C | 0.3 to 1 µM
CN1CCN(c2ccc3cc(-c4cn5ccccc5n4)oc(=O)c3c2)CC1 [Cpd 27, 3-(imidazo[1,2-a]pyridin-2-yl)-7-(4-methylpiperazin-1-yl)-1H-isochromen-1-one] | – | * (A maximum fold increase of ≦1.2 is indicated by one star (*)) | 252 to 254 °C | 3 to 30 µM
CCN1[C@H](C)CN(c2ccc3cc(-c4cn5cc(C)nc(C)c5n4)oc(=O)c3c2)C[C@@H]1C [Cpd 147, 3-(6,8-dimethylimidazo[1,2-a]pyrazin-2-yl)-7-[(3R,5S)-4-ethyl-3,5-dimethylpiperazin-1-yl]-1H-isochromen-1-one] | *** (an EC1.5× between >0.3 nM and ≦1 nM is indicated by three stars (***)) | ***** (a fold increase >1.65 is indicated by five stars (*****)) | 253 to 258 °C | ≤ 0.1 µM
Cc1cn2cc(-c3cc4ccc(N5CCN[C@@H](C)C5)cc4c(=O)o3)nc2cn1 [Cpd 57, 3-(6-methylimidazo[1,2-a]pyrazin-2-yl)-7-[(3S)-3-methylpiperazin-1-yl]-1H-isochromen-1-one] | **** (an EC1.5×≦0.3 nM is indicated by four stars (****)) | ***** (a fold increase >1.65 is indicated by five stars (*****)) | 242 to 244 °C | ≤ 0.1 µM
